Like-named read-outs stand apart in the source and are kept apart here.

Data set [1] concerns feeder insects.
The next data set can be described thus: in vivo. Particulars: cricket.
The nature of data set [2]: Lutein and zeaxanthin in diet versus lutein and zeaxanthin in feeder insect. Particulars: cricket, whole feeder insect (dry matter), oral. How it is done: (§1) An experiment was performed to determine the levels of lutein and zeaxanthin in a feeder insect diet that would produce lutein and zeaxanthin levels in a feeder insect similar to those found in the wild.
In data set [3] the test system is feeder insects. The data set is described as above. Particulars: 64.9 mg/kg lutein in diet. How it is done:
as §1

The subject of a further data set is mealworms. The data set can be described thus: Vitamin E content of mealworms fed a diet containing added vitamin E. The format is in vivo. How it is done:
(§2) There is a direct relationship between the vitamin E content in the diet and the vitamin E content in the feeder insect. Since the feeder insects were fasted prior to analysis, and the results were collected when the feeder insects were grown to approximately two-thirds of adult-size within approximately 21 days after introduction of the diet, the vitamin E content in the feeder insect is a result of a change in the composition of the tissues of the feeder insect, rather than the consequence of food in the gut of the feeder insect. Regression analysis was performed on the data to establish a best-fit line defined by an equation FI=0.241*D+33.5, where FI is the vitamin E content of feeder insect and D is the vitamin E content in the feeder insect diet. According to the present inventive method, with this established equation, a diet, fed to the feeder insect, having a vitamin E content of between approximately 69 and approximately 691 IU per kilogram produces the targeted 50 to 200 IU of vitamin E per kilogram dry matter in the feeder insect, respectively.

Data set [4] has as its system feeder insects. Nature of the data set: Vitamin E level in feeder insects fed diets with varying levels of vitamin E. It counts as in vivo, crickets. Conditions: approximately 21 days, fasted 24 to 36 hours. How it is done:
Captive insectivores fed with current methods have been shown in past studies to be deficient in vitamin E. Feeder insects which contain between approximately 50 and approximately 200 International Units (“IU”) of vitamin E per kilogram dry matter provide health benefits to captive insectivores. All references in this disclosure to concentrations in feeder insects will be based on dry matter measurements, unless otherwise specified. Experiments were performed to determine the levels of vitamin E in a feeder insect diet that would produce in the feeder insect the targeted levels between 50 and 200 IU of vitamin E per kilogram dry matter for consumption by an insectivore. In the experiments, feeder insects were fasted for 24 to 36 hours prior to analysis to ensure that food in the gut was eliminated completely so as not to affect the results. The feeder insects were provided the diet containing varying levels of vitamin E. Vitamin E analysis was then performed using the method as described by Cort, et. al., Vitamin E Content of Feedstuffs Determined by High-Performance Liquid Chromatography Fluorescence, JOURNAL OF AGRICULTURAL AND FOOD CHEMISTRY, Vol. 31, 1330-1333 (1983).
as §2, with “According to the present inventive method, with this established equation, a diet, fed to the feeder insect, having a vitamin E content of between approximately 69 and approximately 691 IU per kilogram produces the targeted 50 to 200 IU of vitamin E per kilogram dry matter in the feeder insect, respectively.” left out

Where [5] appears, read: 3 milligrams of beta-carotene per kilogram of feeder insect diet.
The mark [6] stands for this setting: 65 milligrams of beta-carotene per kilogram of feeder insect diet.

In the case of `CC1=C(/C=C/C(C)=C/C=C/C(C)=C/C=C/C=C(C)/C=C/C=C(C)/C=C/C2=C(C)CCCC2(C)C)C(C)(C)CCC1` [Beta-carotene, beta-carotene], the “share of poultry's vitamin A requirement, by regression” value in the data set with feeder insects [1] (setting [5]) was “approximately 78%”; in the data set with feeder insects [1] (setting [6]), “approximately 1600%”. Besides, the “share of the rat's vitamin A requirement, by regression” value in the data set on feeder insects [1] (setting [5]) is “approximately 51%”; in the data set with feeder insects [1] (setting [6]), “approximately 1000%”. Further, the “vitamin A yielded in feeder insect, by regression” value in the data set on feeder insects [1] (setting [5]) was 1,173 IU of vitamin A per kilogram dry matter; with feeder insects [1] (setting [6]) it was 23,000 IU of vitamin A per kilogram dry matter. Besides, the concentration at 21 days in “in vivo” (0.2 mg/kg diet, Beta-carotene in Feeder Insect, 0.2 mg/kg beta-carotene in diet) worked out at 33.3 ng/g; in the data set “in vivo” (0.3 mg/kg diet, Beta-carotene in Feeder Insect, 0.3 mg/kg beta-carotene in diet), 33.3 ng/g; in “in vivo” (3 mg beta-carotene per kg diet, beta-carotene in feeder insect by regression FI=219.2×D-2.92, 3 milligrams of beta-carotene per kilogram of feeder insect diet), 655 ng/g; in “in vivo” (11.7 mg/kg diet, Beta-carotene in Feeder Insect, 11.7 mg/kg beta-carotene in diet) it was 2720 ng/g; in the data set “in vivo” (15.3 mg/kg diet, Beta-carotene in Feeder Insect, 15.3 mg/kg beta-carotene in diet) it was 3230 ng/g; in “in vivo” (65 mg beta-carotene per kg diet, beta-carotene in feeder insect by regression FI=219.2×D-2.92, 65 milligrams of beta-carotene per kilogram of feeder insect diet), 14300 ng/g. The concentration at 21 days in “in vivo” (beta-carotene in feeder insect by regression from Table C, diet with approximately 0.3 to approximately 1,496.4 milligrams of beta-carotene per kilogram) fell in the range of 62.8 to 328000 ng/g; in “in vivo” (beta-carotene in feeder insect by regression from Table C, diet with approximately 68.4 to approximately 365 milligrams of beta-carotene per kilogram), 15000 to 80000 ng/g.
As to `CC1=C[C@H](O)CC(C)(C)[C@H]1/C=C/C(C)=C/C=C/C(C)=C/C=C/C=C(C)/C=C/C=C(C)/C=C/C1=C(C)C[C@@H](O)CC1(C)C` [Lutein, lutein], the concentration at 21 days in data set [2] (11.6 mg/kg diet) amounted to 33 ng/g; in data set [2] (13.3 mg/kg diet) it was 333 ng/g; in data set [2] (193.6 mg/kg diet), 11300 ng/g. Besides, in the data set on feeder insects [3], the Lutein in Feeder Insect is 800 µg/kg dry matter.
In the case of vitamin E, the “vitamin E content compared with mealworms fed a control diet” value with mealworms is “more vitamin E”. For the same compound, the “Vitamin E in Feeder Insect” value in the data set on feeder insects [4] (31 IU/kg vitamin E in diet) is on record as 38.7 IU/kg dry matter; with feeder insects [4] (210 IU/kg vitamin E in diet), 89.2 IU/kg dry matter; with feeder insects [4] (360 IU/kg vitamin E in diet), 117.7 IU/kg dry matter.
